Measured values taken from the supplement of paper PMC10307832.

Key:
Test in all cases: relative viability (nuclei count vs DMSO), 5 days (fraction); higher = more cells survive
[1] = compound: C1COCCN1C2=NC(=NC3=C2OC4=C3C=CC=N4)C5=CC(=CC=C5)NC(=O)C6=CN=C(C=C6)N + Cc1nc(Nc2ncc(C(=O)Nc3c(C)cccc3Cl)s2)cc(N2CCN(CCO)CC2)n1 [Dasatinib] (partner 0.075 µM)
How it was run: (§1)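 Lung cancer cell lines were pin-tool dosed in 1536-well plates on the day after seeding, with either a lone drug or a fixed anchor-drug dose plus five library-drug doses (not always all listed) in √10 steps. Nuclei were counted on 4× images after 5 days. Relative viability is the ratio of treated-well to vehicle-well nuclei counts, with each value a median of duplicate plates.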

SGI-1776 + Trametinib = compound: CN1CCC(CNc2ccc3ncc(-c4cccc(OC(F)(F)F)c4)n3n2)CC1 [SGI-1776] + CC(=O)Nc1cccc(-n2c(=O)n(C3CC3)c(=O)c3c(Nc4ccc(I)cc4F)n(C)c(=O)c(C)c32)c1 [Trametinib] (partner 0.02 µM)
How it was run: as §1

[2] = compound: C1COCCN1C2=NC(=NC3=C2OC4=C3C=CC=N4)C5=CC(=CC=C5)NC(=O)C6=CN=C(C=C6)N + COc1cccc2cc(-c3nc([C@H]4CC[C@H](C(=O)O)CC4)n4ncnc(N)c34)[nH]c12 [OSI-027] (partner 0.5 µM)
How it was run: as §1

SGI-1776 + Phenformin = compound: CN1CCC(CNc2ccc3ncc(-c4cccc(OC(F)(F)F)c4)n3n2)CC1 [SGI-1776] + N=C(N)NC(=N)NCCc1ccccc1 [Phenformin] (partner 250 µM)
How it was run: as §1

Cell Line	relative viability ([1]; first compound 0.02 µM)	relative viability ([1]; first compound 0.06325 µM)	relative viability ([1]; first compound 0.2 µM)	relative viability ([1]; first compound 0.6325 µM)	relative viability ([1]; first compound 2 µM)	relative viability (SGI-1776 + Trametinib; first compound 0.08 µM)	relative viability (SGI-1776 + Trametinib; first compound 0.8 µM)	relative viability (SGI-1776 + Trametinib; first compound 2.53 µM)	relative viability (SGI-1776 + Trametinib; first compound 8 µM)	relative viability ([2]; first compound 0.02 µM)	relative viability ([2]; first compound 0.06325 µM)	relative viability ([2]; first compound 0.2 µM)	relative viability ([2]; first compound 0.6325 µM)	relative viability ([2]; first compound 2 µM)	relative viability (SGI-1776 + Phenformin; first compound 0.08 µM)	relative viability (SGI-1776 + Phenformin; first compound 0.8 µM)	relative viability (SGI-1776 + Phenformin; first compound 2.53 µM)	relative viability (SGI-1776 + Phenformin; first compound 8 µM)
NCI-H838	0.291	0.299	0.271	0.314	0.249	0.519	0.534	0.414	0.385	0.348	0.381	0.348	0.31	0.278	0.622	0.633	0.52	0.335
HARA	0.32	0.265	0.216	0.23	0.221	0.652	0.74	0.604	0.732	0.52	0.609	0.381	0.391	0.283	0.532	0.337	0.354	0.318
NCI-H23	0.82	–	0.582	0.724	0.482	0.328	0.29	0.372	0.304	0.605	–	0.435	0.351	0.398	0.77	0.702	0.752	0.72
LOU-NH91	0.537	0.546	0.587	0.56	0.357	0.808	0.766	0.806	0.695	0.699	0.686	0.739	0.68	0.657	0.754	0.733	0.716	0.565
LCLC-103H	0.433	0.468	0.479	0.514	0.344	0.658	0.689	0.633	0.642	0.409	0.419	0.446	0.452	0.335	0.371	0.325	0.323	0.281
SW 1573	0.401	0.565	0.458	0.378	0.247	0.525	0.444	0.463	0.305	0.592	0.776	0.75	0.477	0.371	0.381	0.31	0.356	0.275
EKVX	0.593	0.584	0.513	0.463	0.571	0.386	0.342	0.344	0.31	0.626	0.484	0.888	0.673	0.558	0.237	0.241	0.24	0.241
HCC-827	0.282	0.294	0.414	0.233	0.308	0.578	0.534	0.578	0.464	0.769	0.851	0.72	0.684	0.487	0.412	0.424	0.459	0.301
NCI-H661	0.88	0.853	0.688	0.736	0.64	0.596	0.534	0.525	0.466	0.709	0.7	0.659	0.619	0.539	0.269	0.271	0.306	0.246
CAL-12T	0.467	0.519	0.396	0.324	0.338	0.433	0.399	0.33	0.288	0.579	0.583	0.446	0.477	0.323	0.558	0.647	0.531	0.558
NCI-H2342	0.296	0.306	0.283	0.327	0.301	0.891	0.779	0.809	0.769	0.666	0.603	0.661	0.615	0.649	0.696	0.669	0.532	0.501
SW 900	0.54	0.538	0.613	0.518	0.448	0.855	0.76	0.653	0.724	0.759	0.492	0.43	0.467	0.357	0.731	0.563	0.538	0.348
LC-2-ad	0.629	0.716	0.52	0.435	0.417	0.885	0.926	0.931	0.822	0.834	0.981	0.747	0.72	0.625	0.572	0.554	0.667	0.362
EPLC-272H	0.295	0.359	0.267	0.309	0.219	0.288	0.282	0.307	0.282	0.311	0.305	0.289	0.247	0.328	0.261	0.326	0.352	0.246
A-427	0.805	0.77	0.61	0.648	0.589	0.749	0.726	0.722	0.542	0.407	0.416	0.469	0.399	0.394	0.258	0.277	0.275	0.209
NCI-H650	0.475	0.453	0.416	0.442	0.385	1.09	1.01	0.965	0.869	0.545	0.511	0.488	0.474	0.478	0.521	0.438	0.435	0.368
NCI-H1993	0.553	0.552	0.594	0.572	0.492	0.576	0.496	0.765	0.538	0.554	0.57	0.567	0.548	0.549	0.538	0.515	0.515	0.492
NCI-H358	–	0.134	0.109	0.152	0.15	0.14	0.146	0.128	0.123	–	0.832	0.702	0.601	0.443	0.325	0.34	0.313	0.214
RERF-LC-KJ	0.944	1	0.79	0.713	0.559	0.917	0.843	0.722	0.707	0.558	0.594	0.558	0.458	0.462	0.464	0.415	0.439	0.32

Cell Line	relative viability ([1]; first compound 0.02 µM)	relative viability ([1]; first compound 0.06325 µM)	relative viability ([1]; first compound 0.2 µM)	relative viability ([1]; first compound 0.6325 µM)	relative viability ([1]; first compound 2 µM)	relative viability (SGI-1776 + Trametinib; first compound 0.08 µM)	relative viability (SGI-1776 + Trametinib; first compound 0.8 µM)	relative viability (SGI-1776 + Trametinib; first compound 2.53 µM)	relative viability (SGI-1776 + Trametinib; first compound 8 µM)	relative viability ([2]; first compound 0.02 µM)	relative viability ([2]; first compound 0.06325 µM)	relative viability ([2]; first compound 0.2 µM)	relative viability ([2]; first compound 0.6325 µM)	relative viability ([2]; first compound 2 µM)	relative viability (SGI-1776 + Phenformin; first compound 0.08 µM)	relative viability (SGI-1776 + Phenformin; first compound 0.8 µM)	relative viability (SGI-1776 + Phenformin; first compound 2.53 µM)	relative viability (SGI-1776 + Phenformin; first compound 8 µM)
NCI-H1915	0.277	0.329	0.331	0.349	0.264	0.317	0.281	0.309	0.277	0.639	0.663	0.647	0.599	0.5	0.37	0.368	0.382	0.357
NCI-H647	0.196	0.2	0.174	0.164	0.0709	0.621	0.441	0.56	0.323	0.572	0.722	0.748	0.442	0.306	0.499	0.499	0.47	0.151
SK-LU-1	0.153	0.188	0.168	0.176	0.16	0.557	0.541	0.533	0.408	0.38	0.36	0.348	0.329	0.266	0.528	0.494	0.37	0.322
NCI-H441	0.685	0.783	0.609	0.486	0.415	0.497	0.51	0.5	0.294	0.588	0.511	0.507	0.58	0.327	0.759	0.769	0.82	0.663
COR-L 105	0.307	0.363	0.22	0.308	0.284	0.504	0.388	0.452	0.41	0.623	0.645	0.576	0.556	0.414	0.559	0.512	0.452	0.315
NCI-H2009	0.245	0.278	0.215	0.219	0.215	0.345	0.303	0.234	0.175	0.577	0.628	0.533	0.441	0.386	0.407	0.394	0.381	0.3
NCI-H1563	0.505	0.453	0.437	0.461	0.578	–	–	–	–	0.824	0.766	0.719	0.659	0.706	0.694	0.595	0.63	0.548
PC-14	0.229	0.229	0.218	0.138	0.175	0.796	0.582	0.384	0.0529	0.976	1.2	0.977	0.554	0.233	0.573	0.648	0.579	0.151
NCI-H1944	0.201	0.211	0.206	0.215	0.207	0.389	0.408	0.426	0.378	0.401	0.439	0.366	0.345	0.272	0.186	0.188	0.189	0.164
NCI-H2085	0.223	0.252	0.25	0.204	0.258	0.665	0.612	0.511	0.453	0.792	0.829	0.62	0.46	0.44	0.852	0.8	0.795	0.58
NCI-H1792	0.746	0.79	0.768	0.464	1.13	0.446	0.446	0.437	0.324	0.659	0.684	0.753	0.679	0.42	0.335	0.257	0.135	0.257
NCI-H2347	0.291	0.257	0.349	0.321	0.323	0.323	0.278	0.3	0.277	0.384	0.504	0.367	0.355	0.311	0.652	0.44	0.333	0.396
ABC-1	0.586	0.612	0.523	0.587	0.54	–	–	–	–	0.462	0.451	0.461	0.368	0.407	0.23	0.24	0.219	0.236
201T	0.55	0.558	0.606	0.57	0.579	0.702	0.77	0.711	0.702	0.858	0.743	0.72	0.515	0.851	0.442	0.461	0.415	0.471
NCI-H1755	0.499	0.408	0.409	0.346	0.256	0.802	0.741	0.762	0.651	0.797	0.738	0.797	0.622	0.558	0.617	0.584	0.576	0.516
NCI-H1648	–	–	–	–	–	0.397	0.441	0.415	0.398	0.285	0.229	0.264	–	0.279	–	–	–	–
A549	–	–	–	–	–	–	–	–	–	–	–	–	–	–	0.122	0.148	0.11	0.155
NCI-H1623	0.516	0.469	0.516	0.527	0.498	–	–	–	–	0.459	0.434	0.447	0.414	0.405	0.611	0.571	0.556	0.626
HCC-44	–	–	–	–	–	1.04	1.05	0.988	1.09	0.458	0.567	0.39	0.391	0.419	0.197	0.174	0.151	0.125
